According to ChEMBL document CHEMBL5465560, “Selectivity Literature for EUbOPEN Chemogenomic Library” (2024):
One block for each compound: values may come before it.

How the values were obtained:
[1] = system: Hepatocyte growth factor receptor (Homo sapiens), P08581 [M1250T]; conditions: at 10 µM
[2] = target: 5-hydroxytryptamine receptor 1B (Homo sapiens) (UniProt P28222); assay: Selectivity interaction (Panel of kinases, GPCRs, ion channels and transporters (enzymatic assay)) EUB0000266bCl HTR1B
[3] = target: T1, Ephrin type-A receptor 8 (Homo sapiens) (UniProt P29322); assay: Selectivity interaction (ProQinase) EUB0000171b EPHA8
T1 sequence (whole entry): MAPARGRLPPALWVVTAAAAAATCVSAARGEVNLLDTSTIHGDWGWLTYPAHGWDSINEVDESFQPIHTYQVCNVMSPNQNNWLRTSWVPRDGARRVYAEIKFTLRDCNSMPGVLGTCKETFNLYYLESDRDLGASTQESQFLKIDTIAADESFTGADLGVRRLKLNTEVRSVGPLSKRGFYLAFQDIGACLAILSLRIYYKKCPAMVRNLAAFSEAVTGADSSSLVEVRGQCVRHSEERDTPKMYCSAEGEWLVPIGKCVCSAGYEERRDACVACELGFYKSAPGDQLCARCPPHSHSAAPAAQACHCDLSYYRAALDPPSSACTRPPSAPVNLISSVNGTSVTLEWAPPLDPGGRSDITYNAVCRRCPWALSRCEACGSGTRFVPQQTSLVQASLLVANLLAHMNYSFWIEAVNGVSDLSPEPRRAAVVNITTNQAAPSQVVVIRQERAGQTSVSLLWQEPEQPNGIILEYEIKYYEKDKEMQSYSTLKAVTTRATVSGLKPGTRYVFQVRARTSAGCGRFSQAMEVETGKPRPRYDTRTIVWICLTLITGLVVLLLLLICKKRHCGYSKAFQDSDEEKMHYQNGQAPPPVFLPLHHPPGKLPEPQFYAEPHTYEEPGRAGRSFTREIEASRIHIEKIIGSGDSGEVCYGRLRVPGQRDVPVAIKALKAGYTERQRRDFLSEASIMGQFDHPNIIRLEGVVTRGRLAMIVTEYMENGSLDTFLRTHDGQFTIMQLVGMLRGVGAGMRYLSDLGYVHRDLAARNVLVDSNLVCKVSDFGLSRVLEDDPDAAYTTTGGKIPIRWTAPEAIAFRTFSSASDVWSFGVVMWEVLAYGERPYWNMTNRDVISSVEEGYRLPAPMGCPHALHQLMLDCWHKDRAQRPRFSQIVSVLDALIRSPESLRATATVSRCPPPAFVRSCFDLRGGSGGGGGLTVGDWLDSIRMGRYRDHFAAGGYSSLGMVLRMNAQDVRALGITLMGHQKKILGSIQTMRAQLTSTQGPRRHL

[4] = target: T2, Mitogen-activated protein kinase 13 (Homo sapiens) (UniProt O15264); assay: Selectivity interaction (ProQinase) EUB0000171b MAPK13
T2 sequence (whole entry): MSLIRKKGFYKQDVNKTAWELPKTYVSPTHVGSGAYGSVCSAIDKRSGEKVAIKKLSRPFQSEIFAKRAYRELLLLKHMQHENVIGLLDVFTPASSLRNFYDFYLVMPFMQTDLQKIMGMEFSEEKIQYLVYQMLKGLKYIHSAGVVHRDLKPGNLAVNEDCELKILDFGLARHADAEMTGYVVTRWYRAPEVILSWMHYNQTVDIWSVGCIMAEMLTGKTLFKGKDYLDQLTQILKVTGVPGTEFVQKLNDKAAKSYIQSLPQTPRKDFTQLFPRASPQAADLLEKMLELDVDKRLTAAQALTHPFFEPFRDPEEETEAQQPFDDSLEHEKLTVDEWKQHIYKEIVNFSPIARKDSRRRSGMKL

[5] = target: Casein kinase I isoform gamma-3 (Homo sapiens) (UniProt Q9Y6M4); assay: Selectivity interaction (KinomeScan (DiscoverX)) EUB0000092b CSNK1G3; conditions: at 10 µM
[6] = target: Ephrin type-A receptor 7 (Homo sapiens) (UniProt Q15375); assay: Selectivity interaction (KinomeScan (DiscoverX)) EUB0000092b EPHA7; conditions: at 10 µM
[7] = target: Macrophage-stimulating protein receptor (Homo sapiens, UniProt Q04912); assay: Selectivity interaction (Upstate Kinase Profiler service (Millipore)) EUB0000056c MST1R; conditions: at 1 µM
[8] = target: T3, Serine/threonine-protein kinase TAO3 (Homo sapiens) (UniProt Q9H2K8); assay: Selectivity interaction (KinomeScan (DiscoverX)) EUB0000045b TAOK3
T3 sequence (whole entry): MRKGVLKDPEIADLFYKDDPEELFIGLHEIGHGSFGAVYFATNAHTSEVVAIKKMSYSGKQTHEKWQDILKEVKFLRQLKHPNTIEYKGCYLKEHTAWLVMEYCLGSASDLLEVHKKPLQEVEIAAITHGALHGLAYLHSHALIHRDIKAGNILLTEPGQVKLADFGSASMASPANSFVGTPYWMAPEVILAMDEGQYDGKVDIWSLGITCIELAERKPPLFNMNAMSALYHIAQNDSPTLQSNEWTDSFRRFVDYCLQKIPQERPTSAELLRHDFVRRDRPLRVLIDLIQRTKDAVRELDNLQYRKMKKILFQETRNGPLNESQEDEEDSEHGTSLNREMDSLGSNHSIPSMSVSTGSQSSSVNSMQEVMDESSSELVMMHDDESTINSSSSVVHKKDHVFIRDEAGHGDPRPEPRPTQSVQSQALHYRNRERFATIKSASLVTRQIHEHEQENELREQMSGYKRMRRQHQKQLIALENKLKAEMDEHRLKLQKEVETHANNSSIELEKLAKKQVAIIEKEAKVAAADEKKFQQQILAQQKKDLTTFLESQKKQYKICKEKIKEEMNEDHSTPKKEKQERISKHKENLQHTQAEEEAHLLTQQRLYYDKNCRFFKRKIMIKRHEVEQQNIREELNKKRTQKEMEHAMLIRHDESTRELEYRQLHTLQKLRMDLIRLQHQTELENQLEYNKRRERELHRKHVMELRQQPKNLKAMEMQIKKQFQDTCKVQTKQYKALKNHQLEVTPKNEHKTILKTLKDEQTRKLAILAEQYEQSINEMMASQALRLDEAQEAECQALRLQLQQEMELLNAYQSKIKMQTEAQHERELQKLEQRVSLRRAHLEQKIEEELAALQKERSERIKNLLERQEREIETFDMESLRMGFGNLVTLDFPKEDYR

[9] = target: Ribosomal protein S6 kinase alpha-6 (Homo sapiens, UniProt Q9UK32); assay: Selectivity interaction (KinomeScan (DiscoverX)) EUB0000618a RPS6KA6; conditions: at 10 µM
[10] = target: Tyrosine-protein kinase JAK2 (Homo sapiens, UniProt O60674); assay: Selectivity interaction (NanoBRET assay (HEK293T cells)) EUB0001558a JAK2; type: cell-based, HEK-293T
Tyrosine-protein kinase JAK2, sequence (O60674 whole entry): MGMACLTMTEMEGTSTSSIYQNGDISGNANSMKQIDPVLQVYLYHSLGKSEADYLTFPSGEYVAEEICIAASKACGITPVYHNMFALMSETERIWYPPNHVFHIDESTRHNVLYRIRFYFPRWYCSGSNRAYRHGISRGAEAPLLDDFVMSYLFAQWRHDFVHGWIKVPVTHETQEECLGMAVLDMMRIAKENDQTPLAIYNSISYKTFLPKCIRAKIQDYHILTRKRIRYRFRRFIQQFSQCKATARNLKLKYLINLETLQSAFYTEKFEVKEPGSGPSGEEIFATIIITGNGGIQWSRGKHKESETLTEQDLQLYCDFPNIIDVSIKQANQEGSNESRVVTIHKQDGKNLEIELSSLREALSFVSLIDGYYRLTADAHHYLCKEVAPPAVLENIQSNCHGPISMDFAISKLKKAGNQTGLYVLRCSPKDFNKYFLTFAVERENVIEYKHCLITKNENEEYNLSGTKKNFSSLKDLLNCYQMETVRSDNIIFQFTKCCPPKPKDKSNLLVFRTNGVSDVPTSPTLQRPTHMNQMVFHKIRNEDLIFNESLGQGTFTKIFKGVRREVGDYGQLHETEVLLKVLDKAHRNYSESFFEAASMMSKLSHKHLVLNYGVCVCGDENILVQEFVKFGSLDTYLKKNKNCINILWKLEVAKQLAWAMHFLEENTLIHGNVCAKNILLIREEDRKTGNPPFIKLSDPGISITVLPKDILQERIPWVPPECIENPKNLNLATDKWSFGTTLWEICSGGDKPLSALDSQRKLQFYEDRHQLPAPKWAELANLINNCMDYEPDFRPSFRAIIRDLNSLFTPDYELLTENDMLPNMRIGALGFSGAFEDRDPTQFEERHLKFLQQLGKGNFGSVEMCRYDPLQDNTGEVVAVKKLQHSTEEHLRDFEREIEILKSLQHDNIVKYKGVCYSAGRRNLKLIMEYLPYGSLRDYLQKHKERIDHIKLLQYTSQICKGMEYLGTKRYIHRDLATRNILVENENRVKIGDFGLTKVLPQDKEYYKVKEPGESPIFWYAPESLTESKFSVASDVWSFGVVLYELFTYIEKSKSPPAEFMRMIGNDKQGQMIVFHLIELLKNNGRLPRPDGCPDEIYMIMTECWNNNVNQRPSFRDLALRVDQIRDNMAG

Ribosomal protein S6 kinase alpha-6, sequence (Q9UK32 whole entry): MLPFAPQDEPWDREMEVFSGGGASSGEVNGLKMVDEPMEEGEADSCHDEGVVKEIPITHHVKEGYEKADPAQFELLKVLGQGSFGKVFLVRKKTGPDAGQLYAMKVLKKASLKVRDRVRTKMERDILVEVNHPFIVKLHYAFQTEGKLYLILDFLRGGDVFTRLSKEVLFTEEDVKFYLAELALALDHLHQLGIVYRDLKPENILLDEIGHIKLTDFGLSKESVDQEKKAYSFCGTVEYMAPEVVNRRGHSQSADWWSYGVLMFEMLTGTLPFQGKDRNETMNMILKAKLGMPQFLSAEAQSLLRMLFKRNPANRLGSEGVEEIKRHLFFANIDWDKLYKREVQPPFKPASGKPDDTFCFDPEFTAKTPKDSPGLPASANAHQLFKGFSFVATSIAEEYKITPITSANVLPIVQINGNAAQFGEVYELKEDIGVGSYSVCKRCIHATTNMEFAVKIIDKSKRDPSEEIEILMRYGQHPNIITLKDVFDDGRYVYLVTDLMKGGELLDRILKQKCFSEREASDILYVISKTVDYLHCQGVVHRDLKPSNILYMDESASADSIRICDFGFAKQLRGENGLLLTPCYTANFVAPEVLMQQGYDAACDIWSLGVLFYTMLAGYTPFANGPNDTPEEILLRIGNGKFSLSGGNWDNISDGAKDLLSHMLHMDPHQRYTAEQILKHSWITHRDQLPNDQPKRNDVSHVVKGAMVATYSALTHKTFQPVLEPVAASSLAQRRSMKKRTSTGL
Casein kinase I isoform gamma-3 (Homo sapiens), sequence (Q9Y6M4 whole entry, looked up, canonical isoform): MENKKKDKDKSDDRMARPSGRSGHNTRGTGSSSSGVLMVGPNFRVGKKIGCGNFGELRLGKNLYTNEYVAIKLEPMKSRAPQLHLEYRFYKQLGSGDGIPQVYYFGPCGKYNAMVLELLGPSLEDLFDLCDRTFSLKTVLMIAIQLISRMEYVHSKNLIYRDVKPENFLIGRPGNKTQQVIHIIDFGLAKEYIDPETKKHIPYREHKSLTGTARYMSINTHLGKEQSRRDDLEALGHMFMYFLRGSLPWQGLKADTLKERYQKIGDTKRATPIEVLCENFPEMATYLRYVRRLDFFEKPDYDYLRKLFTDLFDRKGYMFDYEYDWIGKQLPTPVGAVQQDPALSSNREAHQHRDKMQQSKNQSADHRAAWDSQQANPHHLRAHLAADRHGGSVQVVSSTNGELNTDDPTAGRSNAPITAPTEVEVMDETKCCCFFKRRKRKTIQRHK
Hepatocyte growth factor receptor (Homo sapiens), P08581 [M1250T], sequence (P08581 whole entry M1250T): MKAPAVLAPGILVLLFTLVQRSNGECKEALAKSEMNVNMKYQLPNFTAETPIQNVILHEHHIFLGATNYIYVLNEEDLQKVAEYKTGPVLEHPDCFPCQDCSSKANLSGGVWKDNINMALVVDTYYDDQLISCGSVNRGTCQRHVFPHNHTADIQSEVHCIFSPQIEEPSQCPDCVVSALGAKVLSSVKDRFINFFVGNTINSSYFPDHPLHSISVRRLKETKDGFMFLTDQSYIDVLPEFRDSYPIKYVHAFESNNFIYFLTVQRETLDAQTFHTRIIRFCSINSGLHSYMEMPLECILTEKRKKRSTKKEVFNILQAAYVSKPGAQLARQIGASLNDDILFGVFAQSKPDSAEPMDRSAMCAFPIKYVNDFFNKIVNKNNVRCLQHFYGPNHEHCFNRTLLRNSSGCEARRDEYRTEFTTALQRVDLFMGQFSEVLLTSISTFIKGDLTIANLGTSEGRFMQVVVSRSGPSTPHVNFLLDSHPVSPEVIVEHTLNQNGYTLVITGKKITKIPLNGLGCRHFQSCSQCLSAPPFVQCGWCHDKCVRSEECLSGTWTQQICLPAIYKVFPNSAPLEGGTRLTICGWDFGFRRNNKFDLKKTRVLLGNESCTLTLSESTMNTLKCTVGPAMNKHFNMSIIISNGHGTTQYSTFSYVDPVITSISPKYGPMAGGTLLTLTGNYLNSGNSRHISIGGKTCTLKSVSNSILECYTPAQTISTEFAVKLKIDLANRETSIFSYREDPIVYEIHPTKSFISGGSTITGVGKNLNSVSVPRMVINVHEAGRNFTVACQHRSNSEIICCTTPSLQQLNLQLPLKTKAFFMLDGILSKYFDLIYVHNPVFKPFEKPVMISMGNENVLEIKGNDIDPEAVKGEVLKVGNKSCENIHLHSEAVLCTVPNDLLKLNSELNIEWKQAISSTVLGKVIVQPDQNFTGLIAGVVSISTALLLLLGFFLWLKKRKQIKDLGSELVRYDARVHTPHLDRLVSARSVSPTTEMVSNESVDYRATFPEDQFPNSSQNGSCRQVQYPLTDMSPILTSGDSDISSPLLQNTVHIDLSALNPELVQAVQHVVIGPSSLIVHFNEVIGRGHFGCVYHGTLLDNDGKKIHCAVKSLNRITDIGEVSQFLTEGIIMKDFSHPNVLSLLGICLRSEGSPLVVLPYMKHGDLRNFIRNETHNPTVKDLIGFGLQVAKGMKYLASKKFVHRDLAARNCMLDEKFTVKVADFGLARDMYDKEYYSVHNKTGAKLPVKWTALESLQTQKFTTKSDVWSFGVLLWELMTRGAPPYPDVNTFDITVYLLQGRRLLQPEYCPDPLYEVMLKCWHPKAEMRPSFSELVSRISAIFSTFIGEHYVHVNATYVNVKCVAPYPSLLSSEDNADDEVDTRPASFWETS
5-hydroxytryptamine receptor 1B (Homo sapiens), sequence (P28222 whole entry): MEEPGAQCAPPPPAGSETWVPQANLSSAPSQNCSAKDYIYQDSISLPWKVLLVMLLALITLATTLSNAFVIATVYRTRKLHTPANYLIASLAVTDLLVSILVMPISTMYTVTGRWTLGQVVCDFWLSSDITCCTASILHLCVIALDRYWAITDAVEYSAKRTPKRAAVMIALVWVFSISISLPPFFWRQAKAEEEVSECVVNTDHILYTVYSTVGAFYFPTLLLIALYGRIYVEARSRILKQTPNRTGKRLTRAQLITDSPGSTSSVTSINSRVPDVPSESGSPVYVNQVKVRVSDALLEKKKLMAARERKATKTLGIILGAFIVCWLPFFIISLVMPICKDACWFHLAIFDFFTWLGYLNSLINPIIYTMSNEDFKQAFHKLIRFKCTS
Ephrin type-A receptor 7 (Homo sapiens), sequence (Q15375 28-998 limits assumed): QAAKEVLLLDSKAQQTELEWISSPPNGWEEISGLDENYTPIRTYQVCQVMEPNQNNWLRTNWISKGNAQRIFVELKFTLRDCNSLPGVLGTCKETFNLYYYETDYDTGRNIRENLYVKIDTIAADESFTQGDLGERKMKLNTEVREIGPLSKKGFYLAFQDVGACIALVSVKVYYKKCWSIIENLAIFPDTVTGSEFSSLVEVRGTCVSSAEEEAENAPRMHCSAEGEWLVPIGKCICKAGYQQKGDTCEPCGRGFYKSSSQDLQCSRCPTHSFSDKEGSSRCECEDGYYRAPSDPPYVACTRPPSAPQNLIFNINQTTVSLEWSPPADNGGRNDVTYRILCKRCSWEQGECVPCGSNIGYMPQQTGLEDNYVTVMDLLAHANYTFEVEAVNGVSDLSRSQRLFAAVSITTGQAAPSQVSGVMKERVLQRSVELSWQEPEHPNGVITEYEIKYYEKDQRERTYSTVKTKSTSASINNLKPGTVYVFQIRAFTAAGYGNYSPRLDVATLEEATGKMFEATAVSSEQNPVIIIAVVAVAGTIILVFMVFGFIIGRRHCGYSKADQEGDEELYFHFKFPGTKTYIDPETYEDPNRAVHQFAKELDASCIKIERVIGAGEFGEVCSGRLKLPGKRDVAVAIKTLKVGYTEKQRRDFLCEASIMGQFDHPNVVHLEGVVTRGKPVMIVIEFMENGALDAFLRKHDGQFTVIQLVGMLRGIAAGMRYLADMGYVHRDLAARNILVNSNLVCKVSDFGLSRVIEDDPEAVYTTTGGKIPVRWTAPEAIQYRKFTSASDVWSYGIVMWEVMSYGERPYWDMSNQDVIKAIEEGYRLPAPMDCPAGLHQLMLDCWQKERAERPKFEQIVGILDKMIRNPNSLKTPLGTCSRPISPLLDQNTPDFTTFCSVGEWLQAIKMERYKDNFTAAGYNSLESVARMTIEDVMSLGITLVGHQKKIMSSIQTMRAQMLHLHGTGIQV

SMILES: Cc1cc([C@@H](C)Nc2ccccc2C(=O)O)c2nc(N3CCOCC3)cc(=O)n2c1 [AZD-6482]
% of control [1]: 87%

pXC50 [2]: < 4.5 M
SMILES: CCn1c(-c2nc3cc(C(=O)N4CCCC(N)C4)ccc3n2C)cc2ccccc21 (stereo not drawn)

% of control ([3]; at 1 µM): 96% | % of control ([3]; at 5 µM): 99% | % of control ([4]; at 1 µM): 91% | % of control ([4]; at 5 µM): 80%
SMILES: C=CC(=O)Nc1cccc(C(=O)Nc2ccc(Nc3cc(-c4[nH]c(SC)nc4C)ccn3)cc2)c1

SMILES: CCC(=O)N1CCN(c2ccc(-n3c(=O)ccc4cnc5ccc(-c6cnc7ccccc7c6)cc5c43)cc2C(F)(F)F)CC1
% of control [5]: 100% | % of control [6]: 98%

% of inhibition [7]: 20%
SMILES: Cc1ccc(-c2ccc3c(ccc4sc5c(c43)NC[C@@H](C)NC5=O)n2)cn1

SMILES: C=CC(=O)Nc1cc(-n2c(=O)ccc3cnc4ccc(-c5ccc(NS(C)(=O)=O)cc5)cc4c32)ccc1C
% of control ([8]; at 1 µM): 100% | % of control ([8]; at 10 µM): 100%

SMILES: O[C@H]1CC[C@H](Nc2ncc3nc(Nc4c(F)cc(F)cc4F)n([C@H]4CCOC4)c3n2)CC1
% of control [9]: 49%

SMILES: CC(C)(O)[C@H](F)CN1Cc2cc(NC(=O)c3cnn4cccnc34)c(N3CCOCC3)cc2C1=O
EC50 [10]: > 50 µM
